Source: patent US5153352A, “Process for preparation of intermediates of carbocyclic nucleoside analogs” (priority 1990, dated 1992)
Converted amounts (≈) assume the structure as drawn. Counter-ions that a name gives are not always drawn.

Columns and labels:
[1] = test system: Herpes simplex type 2 (HSV-2) strain MS; assay: CPE-inhibition assay, HSV-2 strain MS in Vero cells; settings: for TI (Therapeutic Index, MTC/ID50) / VR (Virus Rating): HSV-2 (MS), Vero; for VR (Virus Rating): >1.0 definite, 0.5-0.9 marginal to moderate, <0.5 no significant activity; for EC50: Human alphaherpesvirus 2, Vero, read-out: ID50 (minimum drug concentration that inhibited the CPE by 50%), HSV-2 (MS), Vero
[2] = test system: Herpes simplex type 1 (HSV-1) strain E-377; assay: CPE-inhibition assay, HSV-1 strain E-377 in Vero cells; settings: for TI (Therapeutic Index, MTC/ID50) / VR (Virus Rating): HSV-1 (E-377), Vero; for VR (Virus Rating): >1.0 definite, 0.5-0.9 marginal to moderate, <0.5 no significant activity; for EC50: Human alphaherpesvirus 1, Vero, read-out: ID50 (minimum drug concentration that inhibited the CPE by 50%), HSV-1 (E-377), Vero
[3] = drug cytotoxicity in Vero cells (CPE-inhibition assay); settings: monkey, vero cells, MTC (minimum drug concentration causing any cytotoxicity), Vero
[4] = test system: P388D1: Lymphocytic Leukemia; assay: cytotoxic activity against cultured tumor cells, P388-D1; type: cell-based; settings: Mus musculus, P388D1, 72 h; P388-D1, 3 days, MTT
A549: Lung carcinoma = assay: cytotoxic activity against cultured tumor cells, A549; type: cell-based; settings: Homo sapiens, 72 h; A549, 3 days, MTT
[5] = test system: HCT8: Adenocarcinoma, ileocecal; assay: cytotoxic activity against cultured tumor cells, HCT-8; type: cell-based; settings: Homo sapiens, 72 h; HCT-8, 3 days, MTT
[6] = test system: Human Immunodeficiency Virus (HIV-1); assay: anti-HIV-1 protection of ATH8 cells (method of Mitsuya and Broder); type: cell-based; settings: Human immunodeficiency virus 1, ATH-8, HIV-1, ATH8 cells, read-out: Protective Effect
Text: The method of Mitsuya and Broder (AIDS: Modern Concepts and Therapeutic Challenges; Broder, S. ED.; Marcel Dekker, Inc.; New York, 1987; Chapter 18) was used to determine the in vitro anti-HIV-1 and anti-HIV-2 activity in ATH8 cells of some compounds of the invention. The results of the test are expressed as the percentage of ATH8 cells that were protected from the cytopathogenic effects of HIV at various concentrations of the compound of the invention.

[7] = cytotoxicity in ATH8 cells (method of Mitsuya and Broder); type: cell-based; settings: human, HIV-1 experiment
Text: The method of Mitsuya and Broder (AIDS: Modern Concepts and Therapeutic Challenges; Broder, S. ED.; Marcel Dekker, Inc.; New York, 1987; Chapter 18) was used to determine the in vitro anti-HIV-1 and anti-HIV-2 activity in ATH8 cells of some compounds of the invention. […]

Structure (SMILES) | TI (Therapeutic Index, MTC/ID50) [1] | VR (Virus Rating) [1] | EC50 [1] [µg/mL] | TI (Therapeutic Index, MTC/ID50) [2] | VR (Virus Rating) [2] | EC50 [2] [µg/mL] | MCC ([3]; HSV-1 (E-377) experiment) [µg/mL] | MCC ([3]; HSV-2 (MS) experiment) [µg/mL] | IC50 [4] [µg/mL] | IC50 (A549: Lung carcinoma) [µg/mL] | IC50 [5] [µg/mL] | inhibition at 1 µM ([6]; 1 uM) [%] | inhibition at 10 µM ([6]; 10 uM) [%] | inhibition at 100 µM ([6]; 100 uM) [%] | inhibition at 500 µM ([6]; 500 uM) [%] | cytotoxicity at 1 µM ([7]; 1 uM) [%] | cytotoxicity at 10 µM ([7]; 10 uM) [%] | cytotoxicity at 100 µM ([7]; 100 uM) [%] | cytotoxicity at 500 µM ([7]; 500 uM) [%]
NCC1CC(n2cnc3c(Cl)ncnc32)C1 (stereo not shown) [Example 21, 3-(6'-Chloro-9'H-purin-9'-yl)-aminomethylcyclobutane hydrochloride] | 4.3 | 1.2 | 75 | 3.6 | 1.0 | 88 | 320 | 320 | – | – | – | – | – | – | – | – | – | – | –
CC(=O)OCC1CC(n2cnc3c(=O)[nH]c(N)nc32)C1COC(C)=O (stereo not shown) [Example 20, 9-(2,'3,'-Bis(acetoxymethyl)cyclobutyl)guanine] | 6.4 | 1.9 | 15.7 (≈ 44.9 µM) | 8.2 | 2.2 | 12.1 (≈ 34.6 µM) | 100 | 100 | – | – | – | – | – | – | – | – | – | – | –
Nc1ccn(C2CC(CO)C2CO)c(=O)n1 (stereo not shown) [Example 3, 1-(2',3'-Bis(hydroxymethyl)cyclobutyl)cytosine] | 6.34 | 2.0 | 50.5 (≈ 224 µM) | 31.8 | 3.6 | 10.1 (≈ 44.7 µM) | 320 | 320 | – | – | – | – | – | – | – | – | – | – | –
Nc1ncnc2c1c(Br)cn2C1CC(CO)C1CO (stereo not shown) [Example 67F, 4-Amino-9-bromo-7-(2',3'-bis(hydroxymethyl)cyclobutyl)-7H-pyrrolo[2,3-d]pyrimidine] | – | – | – | – | – | – | – | – | 5.2 (≈ 15.9 µM) | 3.1 (≈ 9.47 µM) | 5.9 (≈ 18 µM) | – | – | – | – | – | – | – | –
Nc1ncc2ncn(C3CC(CO)C3CO)c2n1 (stereo not shown) [Example 7, 3-(2'-Amino-9'H-purin-9'-yl)-1,2-bis(hydroxymethyl)cyclobutane] | – | – | – | 1.2 | 0.55 | 271 (≈ 1090 µM) | 320 | – | – | – | – | – | – | – | – | – | – | – | –
OCC1CC(n2cc(Br)c3c(Cl)ncnc32)C1CO (stereo not shown) [Example 67C] | 2.1 | 0.9 | 14.9 (≈ 43 µM) | 2.9 | 1.2 | 11.1 (≈ 32 µM) | 32 | 32 | 16.4 (≈ 47.3 µM) | 18.4 (≈ 53.1 µM) | 4.3 (≈ 12.4 µM) | – | – | – | – | – | – | – | –
OCC1CC(n2cnc3c(Cl)ncnc32)C1 (stereo not shown) [Example 8E, 3-(6'-chloro-9'H-purin-9'-yl)cyclobutanemethanol] | 1.8 | 1.35 | 54.7 (≈ 229 µM) | – | 0.9 | – | 320 | 100 | – | – | – | – | – | – | – | – | – | – | –
Nc1nc(N)c2ncn(C3CC(CO)C3CO)c2n1 (stereo not shown) [Example 6, 3-(2',6'-Diamino 9'H-purin-9'-yl)-1,2-bis(hydroxymethyl)cyclobutane] | 4.5 | 1.6 | 71.8 (≈ 272 µM) | 10.1 | 2.4 | 31.7 (≈ 120 µM) | 320 | 320 | – | – | – | 21 | 48 | 46 | 57 | 0 | 4 | 32 | 38
Nc1nc2c(nc(Br)n2C2CC(CO)C2CO)c(=O)[nH]1 (stereo not shown) [Example 23] | – | 0.7 | – | 3.2 | 1.7 | 100 (≈ 291 µM) | > 320 | > 320 | – | – | – | – | – | – | – | – | – | – | –
